Results on 24 compounds are retold here after patent publication US10669283B2, “Compound and pharmacologically acceptable salt thereof” (MEIJI SEIKA PHARMA CO., LTD., priority 2016, dated 2020).

A short description of series [1]: Hepatic metabolic stability (rat liver microsome method). The class given is in vitro ADME. Particulars: rat liver microsomes 0.5 mg/mL, test substance 1 μM, NADPH 1 mM, 37° C., 30 minutes. Summed up:
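Test compound (1 μM) preincubated with rat liver microsomes (0.5 mg/mL) in 100 mM potassium phosphate pH 7.4 at 37° C; NADPH (1 mM) started reaction, acetonitrile stopped it at 0 and 30 min. LC-MS quantitation; % remaining = 30-min/0-min ×100, graded A ≥75%, B 60–<75%, C 45–<60%, D <45%.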

In another series the test system is PDE4. Put plainly: PDE4 inhibition, scintillation proximity assay (SPA).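 On PDE4 Inhibitory Activity (concentration for the inhibition rate of 50%): A below 100 nM B 100 to below 1000 nM C 1000 nM or more.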 Type of series: biochemical. The method in brief: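 Compound pre-diluted 1:10 in 50 mM Tris-HCl pH 7.4, 8.3 mM MgCl2, 1.7 mM EGTA, 3 mg/mL BSA, then incubated with PDE4 and [2,8-3H]-cAMP for 120 min at room temperature. Product captured on ZnSO4-containing YSi-SPA beads for 15 min; radioactivity counted against no-enzyme blank and DMSO control.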
On the technique in general: Scintillation proximity formats need no separation of bound from free tracer.

The mark [2] stands for this setting: scintillation proximity assay, class symbols, read-out: PDE4 Inhibitory Activity.
[3] abbreviates: scintillation proximity assay (SPA), evaluated as classes A, B, C, read-out: PDE4 Inhibitory Activity (concentration for the inhibition rate of 50%).

Like-named read-outs stand apart in the source and are kept apart here.

`O=C(N1CC(O)C1)C(F)(F)Oc1ccc(-c2nccs2)c2oc(N3CC4CC(C3)N4)nc12` [Example 412, 2-((2-(3,6-diazabicyclo [3.1.1]heptan-3-yl)-7-(thiazol-2-yl)benzo[d]oxazol-4-yl)oxy)-2,2-difluoro-1-(3-hydroxy-azetidin-1-yl)ethan-1-one]: in series [1], the “Residual ratio (% remaining for 30-minute reaction)” value is listed as “A (a % remaining rate of 75% or more)”. Moreover, the IC50 in the series with PDE4 (setting [2]) was below 100 nM.

For `OCCSc1ccc(-c2nccs2)c2oc(N3CC4CC(C3)N4)nc12` [Example 348, 2-((2-(3,6-diazabicyclo[3.1.1]heptan-3-yl)-7-(thiazol-2-yl)benzo [d]oxazol-4-yl)thio) ethan-1-ol], the “Residual ratio (% remaining for 30-minute reaction)” value in series [1] was “B (60% or more and less than 75%)”. The IC50 in the series with PDE4 (setting [2]) was below 100 nM.

As for `CCC(O)C(F)(F)Oc1ccc(-c2nccs2)c2oc(N3CC4CC(C3)N4)nc12` (stereo not drawn) [Example 395, 1-((2-(3,6-diazabicyclo[3.1.1]heptan-3-yl)-7-(thiazol-2-yl)benzo[d]oxazol-4-yl)oxy)-1,1-difluorobutan-2-ol], the “Residual ratio (% remaining for 30-minute reaction)” value in series [1] was “B (60% or more and less than 75%)”. Besides, the IC50 in the series on PDE4 (setting [2]) is below 100 nM.

For `CC(C)(O)C(F)(F)Oc1ccc(-c2ccsn2)c2oc(N3CC4CCC(C3)N4)nc12` [Example 331, 1-((2-(3,8-diazabicyclo [3.2.1]octan-3-yl)-7-(isothiazol-3-yl)benzo [d]oxazol-4-yl)oxy)-1,1-difluoro-2-methylpropan-2-ol], the “Residual ratio (% remaining for 30-minute reaction)” value in series [1] was “B (60% or more and less than 75%)”. The IC50 in the series on PDE4 (setting [2]) is below 100 nM.

As for `OCc1ccc(Oc2ccc(-c3nccs3)c3oc(N4CC5CC(C4)N5)nc23)nc1` [Example 341, (6-((2-(3,6-diazabicyclo[3.1.1]heptan-3-yl)-7-(thiazol-2-yl)benzo[d]oxazol-4-yl)oxy)pyridin-3-yl)methanol], in series [1], the “Residual ratio (% remaining for 30-minute reaction)” value is reported as “A (a % remaining rate of 75% or more)”. Also, in the series on PDE4 (setting [2]), the IC50 is below 100 nM.

`FC(F)(F)Oc1c(Cl)cc(-c2nccs2)c2oc(N3CC4CC(C3)N4)nc12` [Example 3, 2-(3,6-Diazabicyclo[3.1.1]heptan-3-yl)-5-chloro-7-(thiazol-2-yl)-4-(trifluoromethoxy)benzo[d]oxazole]: the “Residual ratio (% remaining for 30-minute reaction)” value in series [1] is “B (60% or more and less than 75%)”. Also, the IC50 in the series with PDE4 (setting [3]) was below 100 nM.

Take `FC(F)(F)c1ccc(Oc2cc(-c3nccs3)c3oc(N4CC5CC(C4)N5)nc3c2)nc1` [Example 413, 2-(3,6-diazabicyclo [3.1.1]heptan-3-yl)-7-(thiazol-2-yl)-5-((5-(trifluoro-methyl)pyridin-2-yl)oxy) benzo[d] oxazole]: in series [1], the “Residual ratio (% remaining for 30-minute reaction)” value is recorded as “A (a % remaining rate of 75% or more)”. Further, in the series on PDE4 (setting [2]), the IC50 is below 100 nM.

For `Cc1csc(-c2ccc(OC(F)(F)C(C)(C)O)c3nc(N4CC5CCC(C4)N5)oc23)n1` [Example 318, 1-((2-(3,8-Diazabicyclo[3.2.1]octan-3-yl)-7-(4-methylthiazol-2-yl)benzo[d]oxazol-4-yl)oxy)-1,1-difluoro-2-methylpropan-2-ol], the “Residual ratio (% remaining for 30-minute reaction)” value in series [1] is “B (60% or more and less than 75%)”. Besides, the IC50 in the series with PDE4 (setting [3]) is below 100 nM.

`FC(F)(F)Oc1c(Cl)cc(-c2cscn2)c2oc(N3CC4CCC(C3)N4)nc12` [Example 8, 2-(3,8-Diazabicyclo[3.2.1]octan-3-yl)-5-chloro-7-(thiazol-4-yl)-4-(trifluoromethoxy)benzo[d]oxazole]: in series [1], the “Residual ratio (% remaining for 30-minute reaction)” value was “A (a % remaining rate of 75% or more)”. For the same compound, in the series with PDE4 (setting [3]), the IC50 was below 100 nM.

Consider `CC(C)(O)C(F)(F)Oc1ccc(-c2ccc(Cl)cn2)c2oc(N3CC4CC(C3)N4)nc12` [Example 363, 1-((2-(3,6-diazabicyclo [3.1.1]heptan-3-yl)-7-(5-chloropyridin-2-yl)benzo[d]oxazol-4-yl)oxy)-1,1-difluoro-2-methyl-propan-2-ol], for which, in series [1], the “Residual ratio (% remaining for 30-minute reaction)” value is “A (a % remaining rate of 75% or more)”. Moreover, the IC50 in the series on PDE4 (setting [2]) was below 100 nM.

Turning to `[O-][S+](CCO)c1ccc(-c2nccs2)c2oc(N3CC4CC(C3)N4)nc12` (stereo not drawn) [Example 349, 2-((2-(3,6-diazabicyclo[3.1.1]heptan-3-yl)-7-(thiazol-2-yl)benzo [d]oxazol-4-yl)sulfinyl)ethan-1-ol], in series [1], the “Residual ratio (% remaining for 30-minute reaction)” value is given as “A (a % remaining rate of 75% or more)”. Besides, the IC50 in the series with PDE4 (setting [2]) was below 100 nM.

Turning to `O=S(=O)(NCCO)c1ccc(-c2nccs2)c2oc(N3CC4CC(C3)N4)nc12` [Example 385, 2-(3,6-diazabicyclo[3.1.1]heptan-3-yl)-N-(2-hydroxyethyl)-7-(thiazol-2-yl) benzo[d]oxazole-4-sulfonamide], the “Residual ratio (% remaining for 30-minute reaction)” value in series [1] is given as “A (a % remaining rate of 75% or more)”. For the same compound, in the series on PDE4 (setting [2]), the IC50 is below 100 nM.

Consider `CC(C)(O)C(F)(F)Oc1c(Br)cc(-c2nccs2)c2oc(N3CC4CC(C3)N4)nc12` [Example 399, 1-((2-(3,6-diazabicyclo [3.1.1]heptan-3-yl)-5-bromo-7-(thiazol-2-yl)benzo[d]oxazol-4-yl)oxy)-1,1-difluoro-2-methylpropan-2-ol], for which the “Residual ratio (% remaining for 30-minute reaction)” value in series [1] was “B (60% or more and less than 75%)”. Besides, the IC50 in the series with PDE4 (setting [2]) is below 100 nM.

In the case of `CC(C)(O)C(F)(F)Oc1ccc(-c2nccs2)c2oc(N3CC4CC(C3)N4)nc12` [Example 248, 1-((2-(3,6-Diazabicyclo[3.1.1]heptan-3-yl)-7-(thiazol-2-yl)benzo[d]oxazol-4-yl)oxy)-1,1-difluoro-2-methylpropan-2-ol], the “Residual ratio (% remaining for 30-minute reaction)” value in series [1] is recorded as “A (a % remaining rate of 75% or more)”. Also, the IC50 with PDE4 (setting [3]) is below 100 nM.

`FC(F)(F)c1c(Cl)cc(-c2ccccn2)c2oc(N3CC4CCCC(C3)N4)nc12` [Example 12, 2-(3,9-Diazabicyclo[3.3.1]nonan-3-yl)-5-chloro-7-(pyridin-2-yl)-4-(trifluoromethyl)benzo[d]oxazole]: the “Residual ratio (% remaining for 30-minute reaction)” value in series [1] was “B (60% or more and less than 75%)”. Besides, the IC50 with PDE4 (setting [3]) was below 100 nM.

For `CC(C)(O)C(F)(F)Oc1ccc(-c2ncco2)c2oc(N3CC4CCC(C3)N4)nc12` [Example 321, 1-((2-(3,8-Diazabicyclo[3.2.1]octan-3-yl)-7-(oxazol-2-yl)benzo[d]oxazol-4-yl)oxy)-1,1-difluoro-2-methylpropan-2-ol], in series [1], the “Residual ratio (% remaining for 30-minute reaction)” value is on record as “A (a % remaining rate of 75% or more)”. Moreover, the IC50 with PDE4 (setting [3]) was below 100 nM.

As to `c1csc(-c2ccc(OC3COC3)c3nc(N4CC5CC(C4)N5)oc23)n1` [Example 325, 2-(3,6-Diazabicyclo[3.1.1]heptan-3-yl)-4-(oxetan-3-yloxy)-7-(thiazol-2-yl)benzo[d]oxazole], the “Residual ratio (% remaining for 30-minute reaction)” value in series [1] is “A (a % remaining rate of 75% or more)”. The IC50 in the series on PDE4 (setting [2]) is below 100 nM.

For the compound `CC(C)(O)C(F)(F)Oc1ccc(-c2ncccn2)c2oc(N3CC4CCC(C3)N4)nc12` [Example 330, 1-((2-(3,8-diazabicyclo [3.2.1]octan-3-yl)-7-(pyrimidin-2-yl)benzo [d]oxazol-4-yl)oxy)-1,1-difluoro-2-methylpropan-2-ol], the “Residual ratio (% remaining for 30-minute reaction)” value in series [1] is “A (a % remaining rate of 75% or more)”. Also, in the series on PDE4 (setting [2]), the IC50 was below 100 nM.

Consider `O=S(=O)(c1ccc(-c2nccs2)c2oc(N3CC4CC(C3)N4)nc12)N1CCOCC1` [Example 391, 2-(3,6-diazabicyclo [3.1.1]heptan-3-yl)-4-(morpholino-sulfonyl)-7-(thiazol-2-yl)benzo [d]oxazole], for which the “Residual ratio (% remaining for 30-minute reaction)” value in series [1] was “B (60% or more and less than 75%)”. Further, the IC50 in the series with PDE4 (setting [2]) was below 100 nM.

For `c1csc(-c2ccc(OC3CCOCC3)c3nc(N4CC5CC(C4)N5)oc23)n1` [Example 294, 2-(3,6-Diazabicyclo[3.1.1]heptan-3-yl)-4-((tetrahydro-2H-pyran-4-yl)oxy)-7-(thiazol-2-yl)benzo[d]oxazole], the “Residual ratio (% remaining for 30-minute reaction)” value in series [1] was “A (a % remaining rate of 75% or more)”. Further, the IC50 in the series with PDE4 (setting [3]) is below 100 nM.

In the case of `CC(O)C(F)(F)Oc1ccc(-c2nccs2)c2oc(N3CC4CC(C3)N4O)nc12` (single isomer, unassigned) [Example 372, 3-(4-(1,1-difluoro-2-hydroxypropoxy)-7-(thiazol-2-yl)benzo [d]oxazol-2-yl)-3,6-diazabicyclo[3.1.1] heptan-6-ol], the “Residual ratio (% remaining for 30-minute reaction)” value in series [1] was “B (60% or more and less than 75%)”. The IC50 in the series with PDE4 (setting [2]) was below 100 nM.

Regarding `Fc1ccc(-c2cc(Cl)c(OC(F)(F)F)c3nc(N4CC5CCC(C4)N5)oc23)nc1` [Example 10, 2-(3,8-Diazabicyclo[3.2.1]octan-3-yl)-5-chloro-7-(5-fluoropyridin-2-yl)-4-(trifluoromethoxy)benzo[d]oxazole], the “Residual ratio (% remaining for 30-minute reaction)” value in series [1] is listed as “A (a % remaining rate of 75% or more)”. Also, the IC50 in the series with PDE4 (setting [3]) was below 100 nM.

On to `NC(=O)c1ccc(-c2nccs2)c2oc(N3CC4CC(C3)N4)nc12` [Example 354, 2-(3,6-diazabicyclo [3.1.1]heptan-3-yl)-7-(thiazol-2-yl)benzo[d] oxazole-4-carboxamide], for which, in series [1], the “Residual ratio (% remaining for 30-minute reaction)” value is recorded as “A (a % remaining rate of 75% or more)”. Moreover, in the series with PDE4 (setting [2]), the IC50 was below 100 nM.

Regarding `c1csc(-c2ccc(O[C@H]3CCOC3)c3nc(N4CC5CC(C4)N5)oc23)n1` [Example 323, 2-(3,6-Diazabicyclo[3.1.1]heptan-3-yl)-4-(((S)-tetrahydrofuran-3-yl)oxy)-7-(thiazol-2-yl)benzo[d]oxazole], in series [1], the “Residual ratio (% remaining for 30-minute reaction)” value was “B (60% or more and less than 75%)”. Besides, the IC50 in the series on PDE4 (setting [3]) was below 100 nM.
